As usually defined, the MIC is the least concentration at which growth counts as inhibited.

This note sets out measurements from patent publication US12559461B2, “Antibiotic adjuvant compounds” (UNIVERSITY OF NOTRE DAME DU LAC, priority 2020, dated 2026).

In assay [1] the test system is AB5075. Description: Broth microdilution MIC of compound alone (standalone toxicity). The class given is cell-based, Acinetobacter baumannii. The procedure: (§1) Bacterial Strains and Antimicrobial Agents. Acinetobacter baumannii clinical isolate 5075 was obtained from Dr. Colin Manoil at the University of Washington. Colonies were grown on lysogeny broth (LB) agar. Cation-adjusted Mueller-Hinton Broth (CAMHB) (catalog number 212322) were purchased from BD Diagnostics. LB broth was purchased from Fisher Scientific (catalog number BP9722-2). […] Colistin sulfate salt (catalog number C4461) was purchased from Sigma Aldrich. All assays were completed in duplicate and repeated at least two separate times. All compounds were dissolved as their HCl salts in molecular biology grade DMSO as 10 or 100 mM stock solutions and stored at −20° C. Colistin was dissolved in sterile water while clarithromycin was dissolved in molecular biology grade DMSO.
Broth microdilution method for MIC determination. Day cultures (6 h) of each bacterial strain in cation adjusted Mueller Hinton II broth (CAMHB, Fisher Scientific U.S.) were subcultured to 5×10^5 CFU/mL in CAMHB. Aliquots (1 mL) were placed in culture tubes and compound was added from 10 mM stock samples in DMSO, such that compound concentration equaled highest concentration tested (200 μM). Samples were then aliquoted (200 μL) into the first wells of a 96-well plate, with all remaining wells being filled with 100 μL of initial bacterial subculture. Row one wells were mixed five times, before 100 μL was transferred to row two. Row two was then mixed five times, and 100 μL was transferred to row three. This process was repeated until the final row had been mixed; this served to serially dilute the compound. Plates were then covered with GLAD Press n'Seal and incubated under stationary conditions at 37° C. for 16 h. MIC values were then recorded as the lowest concentration at which no bacterial growth was observed.
(Broth dilution looks for growth in wells or tubes with falling amounts of substance.)

The subject of assay [2] is AB5075. Description: Broth microdilution clarithromycin (CLR) potentiation and dose-response of adjuvant. The class given is cell-based, Acinetobacter baumannii. The conditions noted are these: for adjuvant activity (CLR potentiation), rank by amide linker position: dosed at 30 μM. The procedure:
as §1
Broth microdilution method for antibiotic potentiation. Day cultures (6 h) of bacteria in CAMHB were subcultured to 5×10^5 CFU/mL in CAMHB. Aliquots (4 mL) were placed in culture tubes and dosed with compound from 10 mM stock samples to give the desired concentration of the compound to be tested against the particular bacterial strain; this insured non-toxic DMSO concentrations ≤0.3% in each well. 1 mL of the resulting solution was placed in a separate culture and dosed with antibiotic at the highest concentration to be tested. Bacteria treated with antibiotic alone served as the control. Row one of a 96-well plate was filled with 200 μL of the antibiotic/2-AI solution, and rows 2-12 were filled with 100 μL each of the remaining 4 mL of bacterial subculture containing adjuvant at the desired concentration, except for the control lane which contained only bacterial subculture. Row one was then mixed five times, and 100 μL was transferred to row two, which was then mixed five times before being transferred to row three. This process was repeated until all rows had been mixed, except for row twelve which would have only 2-AI to serve as a control to monitor potential toxicity. The 96-well plate was then covered in Glad Press n'Seal and incubated under stationary conditions at 37° C. for 16 h. MIC values were determined as the lowest concentration at which no bacterial growth was observed, and fold reductions were determined by comparison to antibiotic control lane.
Dose-response of Adjuvant Assay. The procedure for ‘broth microdilution method for antibiotic potentiation’ was followed using 4 mL aliquots of adjuvant at various concentrations: 0, 5, 7.5, 10, 15, 20, 25, and 30 μM.

Structures can show the parent of a compound that is named as a salt. Where two headings read alike, the source gives them in different places.

In the case of `Nc1nc(-c2ccc(NC(=O)c3ccccc3)cc2)c[nH]1` [Compound 4a, N-(4-(2-amino-1H-imidazol-4-yl)phenyl)benzamide hydrochloride], in the assay with AB5075 [1] (Acinetobacter baumannii), the minimal inhibitory concentration (MIC) was > 200 µM.

With `Cl.Nc1nc(-c2ccc(NC(=O)c3cccc(I)c3)cc2)c[nH]1` [Compound 4b], in the assay with AB5075 [1], the MIC was >200 µM. For the same compound, the “CLR MIC” value in the assay with AB5075 [2] (compound tested at 30 μM) was 32 µg/mL.

As to `Cl.Nc1nc(-c2ccc(NC(=O)c3cccc(Br)c3)cc2)c[nH]1` [Compound 4c], the MIC in the assay on AB5075 [1] is on record as >200 µM. Besides, the “CLR MIC” value in the assay with AB5075 [2] (compound tested at 30 μM) is 32 µg/mL.

With `Cl.Nc1nc(-c2ccc(NC(=O)c3cccc(Cl)c3)cc2)c[nH]1` [Compound 4d, 4-(2-Amino-3H-imidazol-4-yl)phenyl]-3-chlorobenzamide hydrochloride], in the assay on AB5075 [1] (Acinetobacter baumannii), the MIC amounted to 200 µM.

On to `Cl.Nc1nc(-c2ccc(NC(=O)c3cccc(Cl)c3)cc2)c[nH]1` [Compound 4d], for which the “CLR MIC” value in the assay on AB5075 [2] (compound tested at 10 μM) worked out at 16 µg/mL; with AB5075 [2] (compound tested at 20 μM), 4 µg/mL.

Regarding `Cl.Nc1nc(-c2ccc(NC(=O)c3cccc(F)c3)cc2)c[nH]1` [Compound 4e], the MIC with AB5075 [1] is on record as >200 µM. Moreover, the “CLR MIC” value in the assay with AB5075 [2] (compound tested at 30 μM) came out at 16 µg/mL.

Turning to `Cl.Nc1nc(-c2ccc(NC(=O)c3ccc(C(F)(F)F)cc3)cc2)c[nH]1` [Compound 4f], in the assay with AB5075 [1], the MIC is reported as >200 µM. The “CLR MIC” value in the assay with AB5075 [2] (compound tested at 30 μM) was determined as 32 µg/mL.

Consider `Cl.Nc1nc(-c2ccc(NC(=O)c3ccc(I)cc3)cc2)c[nH]1` [Compound 4g], for which the MIC with AB5075 [1] is >200 µM. Besides, the “CLR MIC” value with AB5075 [2] (compound tested at 30 μM) turned out to be 16 µg/mL.

As for `Nc1nc(-c2ccc(NC(=O)c3ccc(Br)cc3)cc2)c[nH]1` [Compound 4h, N-(4-(2-amino-1H-imidazol-4-yl)phenyl)-4-bromobenzamide hydrochloride], the MIC in the assay on AB5075 [1] (Acinetobacter baumannii) is > 200 µM.

For the compound `Cl.Nc1nc(-c2ccc(NC(=O)c3ccc(Cl)cc3)cc2)c[nH]1` [Compound 4i, 4-(2-Amino-3H-imidazol-4-yl)phenyl]-4-chlorobenzamide hydrochloride], the MIC in the assay with AB5075 [1] (Acinetobacter baumannii) was > 200 µM.

With `Cl.Nc1nc(-c2ccc(NC(=O)c3ccc(Cl)cc3)cc2)c[nH]1` [Compound 4i], the “CLR MIC” value is 16 µg/mL in the assay with AB5075 [2] (compound tested at 10 μM) and 4 µg/mL in the assay with AB5075 [2] (compound tested at 20 μM).

As to `Cl.Nc1nc(-c2ccc(NC(=O)c3ccc(F)cc3)cc2)c[nH]1` [Compound 4j, N-(4-(2-amino-1H-imidazol-4-yl)phenyl)-4-fluorobenzamide hydrochloride], the MIC with AB5075 [1] (Acinetobacter baumannii) was > 200 µM. Also, in the assay on AB5075 [2] (compound tested at 30 μM), the “CLR MIC” value worked out at 8 µg/mL.

As for `Cl.Nc1nc(-c2ccc(NC(=O)c3cc(C(F)(F)F)cc(C(F)(F)F)c3)cc2)c[nH]1` [Compound 4l, 4-(2-Amino-3H-imidazol-4-yl)phenyl]-3,5-(bistrifluoromethyl)benzamide hydrochloride], the MIC with AB5075 [1] (Acinetobacter baumannii) came to 50 µM.

For the compound `Cl.Nc1nc(-c2ccc(NC(=O)c3cc(C(F)(F)F)cc(C(F)(F)F)c3)cc2)c[nH]1` [Compound 4l], the “CLR MIC” value with AB5075 [2] (compound tested at 15 μM) worked out at 8 µg/mL.

As for `Cc1cc(C)cc(C(=O)Nc2ccc(-c3c[nH]c(N)n3)cc2)c1.Cl` [Compound 4m, N-(4-(2-amino-1H-imidazol-4-yl)phenyl)-3,5-dimethylbenzamide hydrochloride], the MIC with AB5075 [1] (Acinetobacter baumannii) was > 200 µM. Moreover, in the assay with AB5075 [2] (compound tested at 30 μM), the “CLR MIC” value was 2 µg/mL.

As for `Cl.Nc1nc(-c2ccc(NC(=O)c3ccc(C(F)(F)F)c(F)c3)cc2)c[nH]1` [Compound 4p, N-(4-(2-amino-1H-imidazol-4-yl)phenyl)-3-fluoro-4-(trifluoromethyl)benzamide hydrochloride], the MIC with AB5075 [1] (Acinetobacter baumannii) stood at 50 µM. For the same compound, the “CLR MIC” value with AB5075 [2] (compound tested at 5 μM) amounted to 16 µg/mL; in the assay with AB5075 [2] (compound tested at 7.5 μM) it was 4 µg/mL; in the assay with AB5075 [2] (compound tested at 10 μM) it was 1 µg/mL; in the assay on AB5075 [2] (compound tested at 15 μM), 0.5 µg/mL. Besides, the “Fold Reduction of CLR MIC” value with AB5075 [2] (compound tested at 10 μM) is 32 fold.

In the case of `Cl.Nc1nc(-c2ccc(NC(=O)c3cccc(Cl)c3Cl)cc2)c[nH]1` [Compound 4q, N-(4-(2-amino-1H-imidazol-4-yl)phenyl)-2,3-dichlorobenzamide hydrochloride], in the assay with AB5075 [1] (Acinetobacter baumannii), the MIC is > 200 µM. Besides, in the assay with AB5075 [2] (compound tested at 30 μM), the “CLR MIC” value worked out at 8 µg/mL and the “Fold Reduction of CLR MIC” value is on record as “four-fold”.

For the compound `Cl.Nc1nc(-c2ccc(NC(=O)c3ccc(Cl)cc3Cl)cc2)c[nH]1` [Compound 4t], the MIC with AB5075 [1] is recorded as >200 µM. In the assay on AB5075 [2] (compound tested at 30 μM), the “CLR MIC” value amounted to 4 µg/mL and the “Fold Reduction of CLR MIC” value is “eight-fold”.

For the compound `Cl.Nc1nc(-c2ccc(NC(=O)c3ccc(Br)cc3F)cc2)c[nH]1` [Compound 4u], in the assay with AB5075 [1], the MIC was >200 µM. Also, the “CLR MIC” value turned out to be 32 µg/mL in the assay with AB5075 [2] (compound tested at 10 μM), 16 µg/mL with AB5075 [2] (compound tested at 20 μM) and 2 µg/mL in the assay with AB5075 [2] (compound tested at 30 μM).

`Cl.Nc1nc(-c2ccc(NC(=O)c3cc(I)c(I)c(I)c3)cc2)c[nH]1` [Compound 4w]: the MIC in the assay with AB5075 [1] was >200 µM. Moreover, the “CLR MIC” value with AB5075 [2] (compound tested at 30 μM) is 32 µg/mL.

As to `Cl.Nc1nc(-c2ccc(NC(=O)c3c(F)c(F)c(F)c(F)c3F)cc2)c[nH]1` [Compound 4x, N-(4-(2-amino-1H-imidazol-4-yl)phenyl)-2,3,4,5,6-pentafluorobenzamide hydrochloride], the MIC with AB5075 [1] (Acinetobacter baumannii) was > 200 µM. For the same compound, the “CLR MIC” value in the assay on AB5075 [2] (compound tested at 30 μM) worked out at 4 µg/mL.

As to `Cl.Nc1nc(-c2ccc(NC(=O)c3cc(Cl)c(Br)c(Cl)c3)cc2)c[nH]1` [Compound 4y, N-(4-(2-amino-1H-imidazol-4-yl)phenyl)-4-bromo-3,5-dichlorobenzamide hydrochloride], the MIC in the assay with AB5075 [1] (Acinetobacter baumannii) was determined as 200 µM. Also, the “CLR MIC” value in the assay on AB5075 [2] (compound tested at 7.5 μM) worked out at 8 µg/mL; with AB5075 [2] (compound tested at 10 μM), 0.25 µg/mL; with AB5075 [2] (compound tested at 20 μM), 0.25 µg/mL. Further, the “Fold Reduction of CLR MIC” value in the assay with AB5075 [2] (compound tested at 10 μM) turned out to be 128 fold.

In the case of `COc1cc(-c2c[nH]c(N)n2)ccc1NC(=O)c1cc(Cl)cc(Cl)c1.Cl` [Compound 6a, N-(4-(2-amino-1H-imidazol-4-yl)-2-methoxyphenyl)-3,5-dichlorobenzamide hydrochloride], the MIC in the assay with AB5075 [1] (Acinetobacter baumannii) turned out to be 100 µM. For the same compound, the entries for the “CLR MIC” value with AB5075 [2] (compound tested at 10 μM), with AB5075 [2] (compound tested at 20 μM) and in the assay on AB5075 [2] (compound tested at 30 μM) were 16 µg/mL, 4 µg/mL and 0.5 µg/mL, respectively. The “Fold Reduction of CLR MIC” value is reported as 8 fold in the assay on AB5075 [2] (compound tested at 20 μM) and 64 fold with AB5075 [2] (compound tested at 30 μM).

`Cc1cc(NC(=O)c2cc(Cl)cc(Cl)c2)ccc1-c1c[nH]c(N)n1.Cl` [Compound 6b, N-(4-(2-amino-1H-imidazol-4-yl)-3-methylphenyl)-3,5-dichlorobenzamide hydrochloride]: in the assay with AB5075 [1] (Acinetobacter baumannii), the MIC is > 200 µM. In addition, the entries for the “CLR MIC” value with AB5075 [2] (compound tested at 10 μM), with AB5075 [2] (compound tested at 20 μM) and in the assay with AB5075 [2] (compound tested at 30 μM) were 8 µg/mL, 0.5 µg/mL and 0.5 µg/mL, respectively. The “Fold Reduction of CLR MIC” value in the assay with AB5075 [2] (compound tested at 20 μM) and in the assay on AB5075 [2] (compound tested at 30 μM) was 64 fold each time.

As to `Cl.Nc1nc(-c2c(F)cc(NC(=O)c3cc(Cl)cc(Cl)c3)cc2F)c[nH]1` [Compound 13, N-(4-(2-amino-1H-imidazol-4-yl)-3,5-difluorophenyl)-3,5-dichlorobenzamide hydrochloride], the “Fold Reduction of CLR MIC” value in the assay on AB5075 [2] (compound tested at 10 μM) is given as “two-fold”. Further, the “CLR MIC” value with AB5075 [2] (compound tested at 20 μM) was found to be 8 µg/mL; with AB5075 [2] (compound tested at 30 μM), 4 µg/mL.

As for `Nc1nc(-c2cccc(NC(=O)c3cc(F)cc(F)c3)c2)c[nH]1` [Compound 18], the “adjuvant activity (CLR potentiation), rank by amide linker position” value in the assay with AB5075 [2] is given as 4k (highest adjuvant activity) >meta amide linker 18>ortho amide linker 19.

Turning to `Nc1nc(-c2ccccc2NC(=O)c2cc(F)cc(F)c2)c[nH]1` [Compound 19], the “adjuvant activity (CLR potentiation), rank by amide linker position” value in the assay on AB5075 [2] is given as “lowest adjuvant activity”.
